Results published in patent US6524527B2 (Natural Corporation, priority 1998, dated 2003).

Tests used:
Assay type in all cases: physicochemical
[1] = Oxidation of CLA methyl ester in open test tube, GLC composition; conditions: for relative content, Day 0: CLA methyl ester sample before oxidation; for relative content, Day 115: open test tube, 115 days, room temperature, free access to air
Experimental: This example describes the oxidation of CLA exposed to open air. A small sample of methyl ester was prepared and stored in an open test tube for 115 days at room temperature with free access to air. […] A chromatogram of the same sample was also run on a polar column. The results indicated the presence of a large number of short chain polar components (i.e., breakdown products).

[2] = Oil stability index (OSI) of CLA triacylglyceride with added antioxidants; conditions: antioxidant added to CLA triacylglyceride, 0-0.1 %
Experimental: In some embodiments, oxidation of CLA is prevented by the addition of metal oxidant chelators or peroxide scavengers to the finished product. In some embodiments, the amount of oxidation is measured by the oil stability index (OSI). The OSI (See e.g., AOCS official method Cd 12b-92) is a measurement of an oil's resistance to oxidation. It is defined mathematically as the time of maximum change of the rate of oxidation. This rate can be determined mathematically. Experimentally, the OSI is calculated by measuring the change in conductivity of deionized water is which volatile organic acids (oxidation products) are dissolved. When performing OSI measurements, it is important to avoid contamination by trace amounts of metals, which can accelerate the oxidation process. This is generally accomplished by careful washing of all glassware used with a cleaning solution lacking chromate or surfactants. Water must be deionized and all solvents must be of a highly purified grade. […]
The oxygen stability index (OSI) was measured using a method known in the art (AOCS official method Cd 12b-92 using an OSI apparatus from Omnion Instruments). […] The conductivity of the water is continually monitored over time. The OSI (the point of maximum change of the rate of oxidation) is determined mathematically. […]

[3] = Peroxide value (PV), colorimetric ferric thiocyanate method; conditions: after storage in open glass
Description: The present invention is not limited to any one mechanism. Indeed, an understanding of the mechanism of the invention is not necessary to produce the composition or perform the methods of the present invention.

| SMILES | relative content, Day 0 [1] | relative content, Day 115 [1] | increase of the OSI value by addition of antioxidant [2] | peroxide values (PV) [3] |
| --- | --- | --- | --- | --- |
| CCCCC/C=C\C=C/CCCCCCCCC(=O)O [CLA, c10, c12, c10,c12 octadecadienoic acid] | 0.09 | 0 |  |  |
| CCCCCC/C=C\CCCCCCCCCC(=O)O [C18:1, c11] | 0.13 | 0.10 |  |  |
| Cc1c(C)c2c(c(C)c1O)CC[C@@](C)(CCC[C@H](C)CCC[C@H](C)CCCC(C)C)O2 [alpha-tocopherol] |  |  | did not significantly increase |  |
| CCCCCCCC/C=C/CCCCCCCC(=O)O [C18:1, t9] | 0 | 0.33 |  |  |
| CCCCCCCCCCCCCCCC(=O)O [C 16:0, palmitic acid] | 1.36 | 1027 |  |  |
| CCCCCC/C=C/C=C\CCCCCCCC(=O)O [CLA, c9, t11, c9,t11-octadecadienoic] | 7.68 | 0 |  |  |
| CCCCC/C=C\C/C=C\CCCCCCCC(=O)O [linoleic acid] |  |  |  | 370 |
| CCCCCC/C=C\C=C/CCCCCCCC(=O)O [CLA, c9, c11] | 0.11 | 0 |  |  |
| CCCCC/C=C\C=C\CCCCCCCCC(=O)O [CLA, t10, c12, t10,c12-octadecadienoic acid] | 7.63 | 0 |  |  |
| CCCCCCCC/C=C\CCCCCCCC(=O)O [C18:1, c9, oleic acid] | 4.14 | 3.19 |  |  |
| CCCCC/C=C\C/C=C\CCCCCCCC(=O)O [C18:2, c9, c12, 9,12-linoleic acid] | 0.06 | 0.03 |  |  |
